pEC50: −log10 of the molar value.
Legend:
Type in all cases: cell-based
TRPML2 = target: T1, TRPML2 (Homo sapiens, UniProt Q8IZK6); experiment: Fluorescent TRPML2 assay (as for TRPML1)
T1 construct: expressed in transfected cells
T1 sequence (Q8IZK6 1-566): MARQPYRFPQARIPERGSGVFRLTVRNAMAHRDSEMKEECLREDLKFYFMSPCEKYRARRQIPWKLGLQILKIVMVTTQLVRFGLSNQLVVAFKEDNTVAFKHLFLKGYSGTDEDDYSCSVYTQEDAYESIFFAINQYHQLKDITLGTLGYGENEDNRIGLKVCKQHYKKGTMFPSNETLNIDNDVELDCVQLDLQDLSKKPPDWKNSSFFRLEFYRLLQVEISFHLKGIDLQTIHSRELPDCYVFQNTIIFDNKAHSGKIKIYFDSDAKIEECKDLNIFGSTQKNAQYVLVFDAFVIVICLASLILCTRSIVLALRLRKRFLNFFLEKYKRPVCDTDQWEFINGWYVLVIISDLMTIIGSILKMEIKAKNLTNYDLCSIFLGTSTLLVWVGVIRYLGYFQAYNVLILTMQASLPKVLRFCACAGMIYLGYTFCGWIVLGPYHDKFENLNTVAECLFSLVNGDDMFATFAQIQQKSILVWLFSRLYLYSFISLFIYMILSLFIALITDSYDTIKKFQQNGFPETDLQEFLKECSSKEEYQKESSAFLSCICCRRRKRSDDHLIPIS
Procedure: HEK-293 Trex cells were stably transfected with a construct consisting of the human coding sequence for TRPML1 cloned into the tet-inducible plasmid pCDNA5 T/O. Mutations were introduced into the TRPML1 sequence to facilitate expression on the cell surface (Silvia Vergarajauregui, Rosa Puertollano Traffic. 2006 March; 7 (3): 337-353). Briefly, the cells are cultured in 150 mm round tissue culture dishes containing 20 mL of media. The day before the assay the cells are rinsed with DPBS —Ca—Mg and then treated briefly with Trypsin-EDTA. The Trypsin-EDTA is diluted with growth media, and cells are counted. 38×10^6 cells are re-plated into 150 mm round tissue culture dishes in media containing 0.5 ug/mL doxycycline to induce expression of hTRPML1.
The day of the experiment cells are lifted from the plates as above and collected by centrifugation. The cells are then suspended in dye loading buffer consisting of Ringer's solution supplemented with 0.1% Pluronic Acid and 1 micromolar Fluo4-AM dye. Cells are loaded for ˜60 minutes in the dark with occasional mixing. The cells are collected by centrifugation, the loading media aspirated, and the cells resuspended in 25 mL Ringer's solution and incubated ˜60 minutes in the dark. The cells are again collected by centrifugation, rinsed in Ringer's Solution and resuspended to 0.2×10^6 cells/mL in modified Ringer's solution containing 10 mM calcium.
Compounds are dissolved to a concentration of 10 millimolar with DMSO. Compound plates are created by dispensing compounds into 384 well black wall clear bottom plates (Greiner 781091). Positive and negative controls are included on each plate. Typically, different amounts of each compound are tested ranging from 100 nanoMoles (20 micromolar final concentration) decreasing in half-log steps to 31 picoMoles (6 nanomolar final concentration). Each concentration is typically tested in triplicate.
50 microliters of dye-loaded cells are dispensed into each well of the compound assay plate created above. The fluorescence in each well is then determined with an excitation wavelength of 480 nm and an emission wavelength of 540 nm using either a Molecular Devices SpectraMax multimode plate reader or a Hamamatsu FDSS/uCell plate imager.
The resulting fluorescence for each well is exported as an ascii file and loaded into our LIMS for analysis. The percent activity of each compound at each concentration is determined by comparison to the positive and negative control wells included in each plate.
Assays for TRPML2 and TRPML3 were performed as above for TRPML1, by substituting the appropriate TRPML2 or TRPML3 subtype for the TRPML1.
EC50 values were calculated using a non-linear regression of Prism. In the table, “A” indicates an EC50 of less than 100 nM, “B” indicates an EC50 range from 100 nM to 500 nM; “C” indicates an EC50 range from 500 nM to 2 μM; and “D” indicates an EC50 greater than 2 μM.

TRPML3 = target: T2, TRPML3 (Homo sapiens, UniProt Q8TDD5); experiment: Fluorescent TRPML3 assay (as for TRPML1)
T2 construct: expressed in transfected cells
T2 sequence (Q8TDD5 1-553): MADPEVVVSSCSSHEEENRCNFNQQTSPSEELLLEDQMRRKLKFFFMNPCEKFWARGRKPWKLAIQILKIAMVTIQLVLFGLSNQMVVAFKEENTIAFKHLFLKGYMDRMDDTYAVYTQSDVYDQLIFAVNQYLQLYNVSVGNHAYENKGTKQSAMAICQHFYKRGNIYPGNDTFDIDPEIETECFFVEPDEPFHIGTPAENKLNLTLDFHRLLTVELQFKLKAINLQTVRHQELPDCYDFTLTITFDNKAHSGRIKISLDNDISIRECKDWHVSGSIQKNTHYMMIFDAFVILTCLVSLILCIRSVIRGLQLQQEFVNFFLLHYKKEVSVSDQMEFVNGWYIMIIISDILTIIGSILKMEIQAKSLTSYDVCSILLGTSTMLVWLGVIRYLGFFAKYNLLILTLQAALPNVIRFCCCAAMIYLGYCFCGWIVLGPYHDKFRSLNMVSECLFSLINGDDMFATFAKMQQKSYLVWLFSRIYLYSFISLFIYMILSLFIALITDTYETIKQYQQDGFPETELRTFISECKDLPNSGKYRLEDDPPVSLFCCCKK
Procedure, shortened: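 HEK-293 Trex cells with tet-inducible (0.5 ug/mL doxycycline, overnight) surface-targeted mutant channel, Fluo4-AM loaded, suspended in Ringer's with 10 mM calcium. Compounds tested 20 µM to 6 nM final, half-log steps, triplicate; fluorescence at ex 480/em 540 nm. EC50 by non-linear regression of percent activity versus plate controls.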

human TRPML1 = human TRPML1 (Homo sapiens, UniProt Q9GZU1); experiment: Fluorescent TRPML1 assay (Fluo4-AM calcium fluorescence, HEK-293 Trex cells)
Procedure, shortened: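 Tet-inducible HEK-293 Trex cells stably expressing surface-targeted mutant human TRPML1, induced with 0.5 ug/mL doxycycline overnight, loaded with Fluo4-AM and suspended in Ringer's with 10 mM calcium. Compounds tested from 20 μM to 6 nM final, half-log steps, in triplicate; fluorescence (ex 480/em 540) normalised to plate controls, EC50 by non-linear regression.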

Chain of human TRPML1 (Q9GZU1 whole entry L15A/L16A/L577A/L578A, form open): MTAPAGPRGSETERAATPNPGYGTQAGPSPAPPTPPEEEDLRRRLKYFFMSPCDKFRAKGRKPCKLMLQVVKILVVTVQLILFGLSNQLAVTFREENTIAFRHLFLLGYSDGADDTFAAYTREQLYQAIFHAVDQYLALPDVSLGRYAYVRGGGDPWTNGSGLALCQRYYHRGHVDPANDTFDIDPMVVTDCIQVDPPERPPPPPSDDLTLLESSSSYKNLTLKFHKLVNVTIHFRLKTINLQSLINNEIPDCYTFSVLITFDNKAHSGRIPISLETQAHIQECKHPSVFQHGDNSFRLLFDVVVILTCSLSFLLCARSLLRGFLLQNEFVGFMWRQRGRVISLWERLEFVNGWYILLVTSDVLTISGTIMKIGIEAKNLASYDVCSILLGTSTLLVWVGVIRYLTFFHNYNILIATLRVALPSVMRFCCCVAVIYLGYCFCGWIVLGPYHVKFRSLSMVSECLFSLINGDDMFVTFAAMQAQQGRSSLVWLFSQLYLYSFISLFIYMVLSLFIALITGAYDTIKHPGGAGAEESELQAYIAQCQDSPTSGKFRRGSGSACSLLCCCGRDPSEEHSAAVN

SMILES | pEC50 (TRPML2; Table 3, compounds 101-177) | pEC50 (TRPML3; Table 3, compounds 101-177) | pEC50 (human TRPML1; Table 3, compounds 101-177) | pEC50 (TRPML2; Table 3, compounds 201-283) | pEC50 (TRPML3; Table 3, compounds 201-283) | pEC50 (human TRPML1; Table 3, compounds 201-283)
Cc1cc(C#N)cc(-n2cc(-c3ccccc3F)c3c(N4CCN(C(=O)C(C)C)C[C@@H]4C)ncnc32)n1 [Compound 143, (S)-2-(5-(2-fluorophenyl)-4-(4-isobutyryl-2-methylpiperazin-1-yl)-7H-pyrrolo[2,3-d]pyrimidin-7-yl)-6-methylisonicotinonitrile] | 6.30 to 7.00 | 6.30 to 7.00 | 6.30 to 7.00 |  |  | 
C[C@@H]1CN(c2ncnc3c2c(-c2ccccc2F)cn3-c2cc(C#N)ccn2)CCN1C(=O)C(C)(C)C [Compound 109, (R)-2-(5-(2-fluorophenyl)-4-(3-methyl-4-pivaloylpiperazin-1-yl)-7H-pyrrolo[2,3-d]pyrimidin-7-yl)isonicotinonitrile] | > 7.00 | > 7.00 | > 7.00 |  |  | 
COC(C)(C)C(=O)N1C[C@H](C)N(c2ncnc3c2c(C2CC2)cn3-c2cccc(F)c2)C[C@H]1C [Compound 246, 1-((2R,5S)-4-(5-cyclopropyl-7-(3-fluorophenyl)-7H-pyrrolo[2,3-d]pyrimidin-4-yl)-2,5-dimethylpiperazin-1-yl)-2-methoxy-2-methylpropan-1-one] |  |  |  | 5.70 to 6.30 | 6.30 to 7.00 | 6.30 to 7.00
C[C@H]1CN(C(=O)CC(C)(C)C(F)(F)F)CCN1c1ncnc2c1c(C1CC1)cn2-c1cc(C#N)ccn1 [Compound 141, (S)-2-(5-cyclopropyl-4-(2-methyl-4-(4,4,4-trifluoro-3,3-dimethylbutanoyl)piperazin-1-yl)-7H-pyrrolo[2,3-d]pyrimidin-7-yl)isonicotinonitrile] | 6.30 to 7.00 | > 7.00 | > 7.00 |  |  | 
CC(C)C(=O)N1CCN(c2ncnc3c2c(N2CCCC2)cn3-c2cc(C#N)ccn2)[C@@H](C)C1 [Compound 144, (S)-2-(4-(4-isobutyryl-2-methylpiperazin-1-yl)-5-(pyrrolidin-1-yl)-7H-pyrrolo[2,3-d]pyrimidin-7-yl)isonicotinonitrile] | 6.30 to 7.00 | 6.30 to 7.00 | > 7.00 |  |  | 
COC(C)(C)C(=O)N1C[C@H](C)N(c2ncnc3c2c(C(F)(F)F)cn3-c2cc(C#N)ccn2)C[C@H]1C [Compound 208, 2-(4-((2S,5R)-4-(2-methoxy-2-methylpropanoyl)-2,5-dimethylpiperazin-1-yl)-5-(trifluoromethyl)-7H-pyrrolo[2,3-d]pyrimidin-7-yl)isonicotinonitrile] |  |  |  | 5.70 to 6.30 | > 7.00 | > 7.00
CC(C)C(=O)N1CCN(c2ncnc3c2c(-c2ccccc2F)cn3-c2cc(C#N)n(C)n2)[C@@H](C)C1 [Compound 146, (S)-3-(5-(2-fluorophenyl)-4-(4-isobutyryl-2-methylpiperazin-1-yl)-7H-pyrrolo[2,3-d]pyrimidin-7-yl)-1-methyl-1H-pyrazole-5-carbonitrile] | 5.70 to 6.30 | 6.30 to 7.00 | 6.30 to 7.00 |  |  | 
C[C@@H]1CN(c2ncnc3c2c(C2CCC2)cn3-c2cc(F)cc(F)c2)[C@@H](C)CN1C(=O)C(C)(C)C [Compound 255, 1-((2R,5S)-4-(5-cyclobutyl-7-(3,5-difluorophenyl)-7H-pyrrolo[2,3-d]pyrimidin-4-yl)-2,5-dimethylpiperazin-1-yl)-2,2-dimethylpropan-1-one] |  |  |  | < 5.70 | 5.70 to 6.30 | 5.70 to 6.30
CC(C)C(=O)N1C[C@@H](C)N(c2ncnc3c2c(-c2ccccc2F)cn3-c2cc(C#N)ccn2)C[C@@H]1C [Compound 201, 2-(5-(2-fluorophenyl)-4-((2R,5S)-4-isobutyryl-2,5-dimethylpiperazin-1-yl)-7H-pyrrolo[2,3-d]pyrimidin-7-yl)isonicotinonitrile] |  |  |  | 6.30 to 7.00 | 6.30 to 7.00 | 5.70 to 6.30
C[C@@H]1CN(c2ncnc3c2c(-c2ccccc2F)cn3-c2cc(C#N)ccn2)CCN1C(=O)C1(F)CC1 [Compound 131] | 6.30 to 7.00 | > 7.00 | > 7.00 |  |  | 
C[C@@H]1CN(c2ncnc3c2c(N2CCCC2)cn3-c2cccc(Cl)c2)CCN1C(=O)C1(F)CC1 [Compound 279, (R)-(4-(7-(3-chlorophenyl)-5-(pyrrolidin-1-yl)-7H-pyrrolo[2,3-d]pyrimidin-4-yl)-2-methylpiperazin-1-yl)(1-fluorocyclopropyl)methanone] |  |  |  | 5.70 to 6.30 | 5.70 to 6.30 | 6.30 to 7.00
C[C@H]1CN(C(=O)C(C)(C)C)CCN1c1ncnc2c1c(C1CC1)cn2-c1cc(C#N)ccn1 [Compound 104, (S)-2-(5-cyclopropyl-4-(2-methyl-4-pivaloylpiperazin-1-yl)-7H-pyrrolo[2,3-d]pyrimidin-7-yl)isonicotinonitrile] | 5.70 to 6.30 | > 7.00 | > 7.00 |  |  | 
C[C@@H]1CN(c2ncnc3c2c(C2CC2)cn3-c2cc(C#N)ccn2)CCN1C(=O)C(C)(C)F [Compound 130, (R)-2-(5-cyclopropyl-4-(4-(2-fluoro-2-methylpropanoyl)-3-methylpiperazin-1-yl)-7H-pyrrolo[2,3-d]pyrimidin-7-yl)isonicotinonitrile] | 6.30 to 7.00 | > 7.00 | > 7.00 |  |  | 
C[C@@H]1CN(c2ncnc3c2c(C2CCC2)cn3-c2cccc(C(F)(F)F)c2)[C@@H](C)CN1C(=O)CC(C)(C)C(F)(F)F [Compound 262, 1-((2R,5S)-4-(5-cyclobutyl-7-(3-(trifluoromethyl)phenyl)-7H-pyrrolo[2,3-d]pyrimidin-4-yl)-2,5-dimethylpiperazin-1-yl)-4,4,4-trifluoro-3,3-dimethylbutan-1-one] |  |  |  | 5.70 to 6.30 | 5.70 to 6.30 | 6.30 to 7.00
CC(C)C(=O)N1CCN(c2ncnc3c2c(-c2ccccc2F)cn3-c2cc(C#N)ccn2)[C@@H](C)C1 [Compound 102, (S)-2-(5-(2-fluorophenyl)-4-(4-isobutyryl-2-methylpiperazin-1-yl)-7H-pyrrolo[2,3-d]pyrimidin-7-yl)isonicotinonitrile] | 6.30 to 7.00 | > 7.00 | > 7.00 |  |  | 

— patent US20240398812A1 (Caraway Therapeutics, Inc., priority 2021, published 2024)
